Results as given in the NIST ThermoML archive (doi:10.1016/j.jct.2018.11.014).

Test: molar heat capacity at constant pressure
Conditions: 101.33 kPa, Crystal, Vacuum adiabatic calorimetry

O=C(CO)[C@H](O)[C@H](O)[C@H](O)CO [D-psicose]
Conditions | molar heat capacity at constant pressure [J/K/mol]
10 K | 1.06
13.99 K | 3.375
14.02 K | 3.439
14.28 K | 3.64
14.4 K | 3.754
14.66 K | 3.847
14.86 K | 4.085
15.13 K | 4.198
15.37 K | 4.483
15.64 K | 4.671
15.88 K | 4.798
16.15 K | 5.026
16.39 K | 5.238
16.66 K | 5.478
16.87 K | 5.647
17.18 K | 5.894
17.36 K | 6.237
17.71 K | 6.348
17.89 K | 6.508
18.23 K | 6.844
18.41 K | 6.995
18.75 K | 7.275
18.93 K | 7.521
19.28 K | 7.752
19.46 K | 7.915
19.8 K | 8.239
19.98 K | 8.416
20 K | 8.42
20.3 K | 8.666
20.5 K | 8.908
20.83 K | 9.202
21.03 K | 9.391
21.37 K | 9.657
21.57 K | 9.861
21.92 K | 10.24
22.13 K | 10.42
22.49 K | 10.72
22.7 K | 10.96
23.05 K | 11.3
23.26 K | 11.48
23.62 K | 11.82
23.81 K | 12.26
24.15 K | 12.34
24.36 K | 12.54
24.65 K | 12.88
24.9 K | 13.06
25.16 K | 13.34
25.45 K | 13.61
25.69 K | 13.83
26.02 K | 14.15
26.24 K | 14.43
26.59 K | 14.76
26.81 K | 14.99
27.15 K | 15.34
27.39 K | 15.49
27.7 K | 15.88
27.98 K | 16.13
28.26 K | 16.42
28.56 K | 16.7
28.82 K | 16.95
29.15 K | 17.31
29.37 K | 17.41
29.75 K | 17.78
29.95 K | 18.06
30 K | 18.07
30.36 K | 18.41
30.55 K | 18.62
31.01 K | 19.02
31.16 K | 19.16
31.66 K | 19.69
31.8 K | 19.88
32.32 K | 20.31
32.46 K | 20.43
32.98 K | 20.91
33.13 K | 21.09
33.66 K | 21.61
33.8 K | 21.78
34.35 K | 22.21
34.48 K | 22.3
35.05 K | 22.92
35.17 K | 22.97
35.76 K | 23.59
35.88 K | 23.74
36.48 K | 24.27
36.63 K | 24.38
37.21 K | 24.86
37.36 K | 25.09
37.96 K | 25.64
38.08 K | 25.78
38.67 K | 26.21
38.81 K | 26.52
39.35 K | 26.89
39.58 K | 27.16
40 K | 27.53
40.05 K | 27.63
40.43 K | 27.95
40.77 K | 28.11
41.28 K | 28.77
41.49 K | 28.95
42.02 K | 29.4
42.23 K | 29.59
42.78 K | 30.13
42.98 K | 30.25
43.57 K | 30.79
43.74 K | 30.97
44.37 K | 31.59
44.52 K | 31.66
45.16 K | 32.25
45.3 K | 32.35
45.96 K | 33.05
46.09 K | 33.04
46.74 K | 33.72
46.88 K | 33.8
47.53 K | 34.42
47.68 K | 34.54
48.33 K | 35.15
48.49 K | 35.21
49.13 K | 35.86
49.31 K | 35.98
49.94 K | 36.62
50 K | 36.64
50.14 K | 36.77
50.75 K | 37.33
51.57 K | 38.05
52.37 K | 38.74
53.17 K | 39.44
53.96 K | 40.14
54.75 K | 40.85
55.53 K | 41.56
56.33 K | 42.23
57.14 K | 42.92
57.94 K | 43.52
58.76 K | 44.3
